Laboratory results from patent US12391677B2, “Thyroid hormone receptor agonists” (INVENTISBIO CO., LTD., priority 2018, dated 2025).
Marks after values point to notes of the source that are not given here.

Key:
[1] = Human hepatocyte clearance study; assay type: in vitro ADME
Procedure: The in vitro human hepatocyte clearance of compounds described here was studied using pooled human hepatocytes purchased from BioreclamationIVT (Westbury, NY, Cat # X008001, Lot # TQJ). The assay was conducted according to manufacturer's instruction. Briefly, 10 mM stock solutions of test compounds and positive control (Verapamil) were prepared in 100% DMSO. […] Incubation media is made of Williams E medium supplemented with 1×GlutaMax. Both thawing medium and incubation medium (serum-free) were placed in a 37° C. water bath for at least 15 minutes prior to use. […] Verapamil was use as a positive control in the assay. Vials of cryopreserved hepatocytes were removed from storage and thawed in a 37° C. water bath with gentle shaking. Contents of the vial were poured into the 50 mL thawing medium conical tube. Vials were centrifuged at 100 g for 10 minutes at room temperature. […] Hepatocyte viability and density were counted using a Trypan Blue exclusion, and then cells were diluted with serum-free incubation medium to a working cell density of 0.5×10^6 viable cells/mL. Then, a portion of the hepatocytes at 0.5×10^6 viable cells/mL was boiled for 5 minutes prior to adding to the plate as negative control to eliminate the enzymatic activity so that little or no substrate turnover should be observed. The boiled hepatocytes were used to prepare negative samples. Aliquots of 198 μL hepatocytes were dispensed into each well of a 96-well non-coated plate. The plate was placed in the incubator on an orbital shaker at 500 rpm for approximately 10 minutes. […] This assay was performed in duplicate. The plate was incubated in the incubator on an orbital shaker at 500 rpm for the designated time points. Twenty-five microliter of contents were transferred and mixed with 6 volumes (150 μL) of cold acetonitrile with IS (200 nM imipramine, 200 nM labetalol and 200 nM diclofenac) to terminate the reaction at time points of 0, 15, 30, 60, 90 and 120 minutes. […] For data analysis, all calculations were carried out using Microsoft Excel. Peak areas were determined from extracted ion chromatograms. The in vitro half-life (t1/2) of parent compound was determined by regression analysis of the percent parent disappearance vs. time curve. […] Conversion of the in vitro t1/2 (in minutes) into the scale-up unbound intrinsic clearance (scaled-up unbound CLint, in mL/min/kg) was done using the following equation (mean of duplicate determinations): Scaled-up unbound CLint=kV/N×scaling factor, where V=incubation volume (0.5 mL); N=number of hepatocytes per well (0.25×10^6 cells).

[2] = target: ligand binding domain of thyroid hormone receptor beta (Homo sapiens (Human), UniProt P10828); assay: Thyroid hormone receptor TR-FRET binding assay (TRβ LBD); conditions: TRβ LBD 2 nM
Procedure: (§1) TR-FRET binding assay was used to test representative compounds herein.
(§2) The ligand binding domain of thyroid hormone receptor alpha and the ligand binding domain of thyroid hormone receptor beta with GST tag were purchased from Invitrogen. Biotin-SRC2-2 coactivator peptide was purchased from Sangon Biotech, Europium anti-GST and Streptavidin-D2 was from Cisbio.
(§3) Five microliters of 4× compound serial dilution was added in the 384-well plate, white, low volume, round-bottom assay plate. […] Centrifuge the assay plates at 1000 g for 1 min and incubate 1 hr at RT, protected from light. […] Calculate EC50 by fitting % Activity values and log of compound concentrations to nonlinear regression (dose response—variable slope) with Graphpad 5.0.

[3] = target: ligand binding domain of thyroid hormone receptor alpha (Homo sapiens (Human), UniProt P10827); assay: Thyroid hormone receptor TR-FRET binding assay (TRα LBD); conditions: TRα LBD 4 nM
Procedure: as §1, §2, §3

[4] = target: TRβ-GAL4 binding domain chimeric receptors (Homo sapiens (Human), UniProt P10828); assay: Thyroid hormone receptor cell assay (GAL4 luciferase reporter in HEK293-LUC cells); assay type: cell-based
From the text: TRα-LBD or TRβ-LBD, coding sequence was inserted into pBIND expression vector (Promega, E1581) to express TRβ-GAL4 binding domain chimeric receptors. This expression vector was transfected into HEK293-LUC host cells with reporter vector (pGL4.35 which carry a stably integrated GAL4 promoter driven luciferase reporter gene). Upon agonist binding to the corresponding TRa-GAL4 or TRb-GAL4 chimeric receptor, the chimeric receptor binds to the GAL4 binding sites and stimulates the reporter gene.
Seed 2.5×10^6 HEK293-LUC cells into a 60 mm dish and incubated for 16 h at 37° C. under 5% CO2 atmosphere. Mix 12 microliters of Lipo LTX reagent in 250 microliters of Opti-MEM Medium by inversion. Mix 6 ug of DNA in 250 uL of Opti-MEM medium, then add 6 uL of Lipo PLUS Reagent. Add diluted DNA to each tube of diluted Lipo LTX Reagent (1:1 ratio), and mix by Pipettor and incubate at room temperature for 10 min. The reagent mixture was added to a 60 mm dish, incubated with cells for 4-7 h at 37 degrees under 5% CO2 atmosphere.
75 nL compound was added into 384 well assay plate using ECHO550 and then add HEK293-LUC cells (transfected, 17,000 cells/well) into the plate using phenol red-free DMEM containing 5% charcoal/dextran-treated FBS and incubated for 16-20 h at […] under 5% CO2 atmosphere. Add 25 uL of Steady-Glo Luciferase Assay Reagent into each well. Shake for 5 min and then record the luminescence value on Envision 2104 plate reader.

ligand binding domain of thyroid hormone receptor alpha, sequence (P10827 other isoform, or with tags, fused parts or gaps del 1-162, other chains not shown): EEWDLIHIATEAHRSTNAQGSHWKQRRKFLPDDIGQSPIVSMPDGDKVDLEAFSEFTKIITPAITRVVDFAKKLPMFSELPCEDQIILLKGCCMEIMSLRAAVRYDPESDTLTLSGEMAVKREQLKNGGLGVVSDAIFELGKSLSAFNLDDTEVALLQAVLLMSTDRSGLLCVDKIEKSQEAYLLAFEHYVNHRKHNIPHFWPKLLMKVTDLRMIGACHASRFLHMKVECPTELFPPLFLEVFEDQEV
ligand binding domain of thyroid hormone receptor beta, sequence (P10828 217-461): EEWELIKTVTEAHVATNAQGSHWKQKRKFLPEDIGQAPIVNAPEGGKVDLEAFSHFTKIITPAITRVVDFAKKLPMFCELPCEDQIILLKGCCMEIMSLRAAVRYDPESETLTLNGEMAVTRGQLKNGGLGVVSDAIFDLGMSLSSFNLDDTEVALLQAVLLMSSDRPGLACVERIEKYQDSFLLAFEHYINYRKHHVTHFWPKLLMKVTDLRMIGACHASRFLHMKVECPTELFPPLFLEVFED
TRβ-GAL4 binding domain chimeric receptors, sequence (P10828 217-461, stated change not applied): as the sequence (P10828 217-461) above

| CLint scaled at 1 µM ([1]; human, hepatocytes) | half-life at 1 µM ([1]; human, hepatocytes) | hepatocyte CLint at 1 µM ([1]; human, hepatocytes) | Human Hepatocyte Remaining Percentage @ 120 min ([1]; human, hepatocytes, 2 h, 1 µM) | Human In vitro T1/2 ([1]; human, hepatocytes) | Compound | further results |
| --- | --- | --- | --- | --- | --- | --- |
| 4 mL/min/kg | 14.7 h | 1.57 µL/min/1e6 cells | 93% | – | Cc1nn(-c2cc(Cl)c(Oc3cc(Cc4ccc(C#N)cc4)c(=O)[nH]n3)c(Cl)c2)c(=O)[nH]c1=O [Compound 66] | – |
| 21.3 mL/min/kg | 2.75 h | 8.39 µL/min/1e6 cells | 60% | – | CC(C)c1cc(Oc2c(Cl)cc(-n3nc(C#N)c(=O)[nH]c3=O)cc2Cl)n[nH]c1=O [MGL-3196, reference compound] | – |
| 4.53 mL/min/kg | 13 h | 1.78 µL/min/1e6 cells | 94% | – | N#Cc1nn(-c2cc(Cl)c(Oc3cc(C4CC4)c(=O)[nH]n3)c(C(F)(F)F)c2)c(=O)[nH]c1=O [Compound 65] | EC50 [2]: 150 nM; EC50 [3]: 1040 nM; EC50 [4]: 4100 nM |
| – | – | – | – | 10.4 h | Cc1nn(-c2cc(Cl)c(Oc3cc(C(C)C)c(=O)[nH]n3)c(Cl)c2)c(=O)[nH]c1=O [Compound 35] | EC50 [3]: 2570 nM; Human In vitro Clint ([1]; human, hepatocytes): 2.21 μL/min/10^6 cells; Human Scale-up Clint ([1]; human, hepatocytes): 5.63 mL/min/kg; Human Hepatocyte Remaining Percentage @ 120 min ([1]; human, hepatocytes, 2 h): 89% |
| 9.5 mL/min/kg | 6.18 h | 3.73 µL/min/1e6 cells | 79% | – | Cc1nn(-c2cc(Cl)c(Oc3cc(C4CCC4)c(=O)[nH]n3)c(Cl)c2)c(=O)[nH]c1=O [Compound 9] | – |
| – | – | – | – | 56.77 h | Cc1nn(-c2cc(Cl)c(Oc3cc(Cc4ccccc4)c(=O)[nH]n3)c(Cl)c2)c(=O)[nH]c1=O [Compound 27] | Human Hepatocyte Remaining Percentage @ 120 min ([1]; human hepatocytes, 120 min): 100%; Human Scale-up Clint ([1]; human hepatocytes, scaling factor 2544.3): 1.04 mL/min/kg; Human In vitro Clint ([1]; human, hepatocytes): 0.41 μL/min/10^6 cells |
| – | – | – | 98% | ∞* | N#Cc1nn(-c2cc(Br)c(Oc3cc(C4CC4)c(=O)[nH]n3)c(Br)c2)c(=O)[nH]c1=O [Compound 8] | Human In vitro Clint ([1]; human, hepatocytes, 1 µM): 0.00* μL/min/10^6 cells; Human Scale-up Clint ([1]; human, hepatocytes, 1 µM): 0.00* mL/min/kg |
